For 24 compounds, Ki results are on record in patent US20030044399A1, “Method of treatment” (SmithKline Beecham Corporation, priority 1998, published 2003).

For one test, the target named is Cruzain (Trypanosoma cruzi, UniProt P25779). The test can be described thus: Cysteine protease inhibition, progress curve method, cruzain. It is filed as biochemical. The following applies: 4 uM Ac-Lys-Glu-Lys-Leu-Arg-AMC, 100 mM Na acetate pH 5.5, 5 mM cysteine; for pKi: read-out: Cruzain Ki. In a few lines:
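Kinetic constants from AMC-release progress curves over 20–30 min at ambient temperature in 100 mM Na acetate pH 5.5, 5 mM cysteine, 2% DMSO; enzyme added last to inhibitor plus substrate. Substrates: 10 uM Cbz-Phe-Arg-AMC (Leishmania, Schistosoma), 10 uM Cbz-Leu-Arg-AMC (falcipain), 4 uM Ac-Lys-Glu-Lys-Leu-Arg-AMC (cruzain). Ki,app from linear curves; time-dependent inhibition as kobs/[I].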

A further test addresses Rhodazain (Trypanosoma brucei rhodesiense, UniProt Q95PM0). Nature of the test: Cysteine protease inhibition, progress curve method, rhodazain. The format is biochemical, Trypanosoma brucei rhodesiensi. To be noted: 10 uM Cbz-Leu-Arg-AMC, 100 mM Na acetate pH 5.5, 5 mM cysteine; for Ki: Rhodazain Ki (nM).

By pKi is commonly meant −log10 of the Ki, conventionally taken in molar units. As usually defined, the Ki is the dissociation constant of the complex between target and ligand, obtained from inhibition or displacement.

pKi: −log10 of the molar value. Like-named read-outs stand apart in the source and are kept apart here.

Sequence of Cruzain (P25779 123-337): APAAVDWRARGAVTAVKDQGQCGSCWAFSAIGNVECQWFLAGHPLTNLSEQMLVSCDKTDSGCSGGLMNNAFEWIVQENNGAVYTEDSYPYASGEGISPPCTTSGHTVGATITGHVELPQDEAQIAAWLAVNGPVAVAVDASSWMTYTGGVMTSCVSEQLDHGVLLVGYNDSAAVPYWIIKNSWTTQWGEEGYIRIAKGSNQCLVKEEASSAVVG
Sequence of Rhodazain (Q95PM0 entry or part of it): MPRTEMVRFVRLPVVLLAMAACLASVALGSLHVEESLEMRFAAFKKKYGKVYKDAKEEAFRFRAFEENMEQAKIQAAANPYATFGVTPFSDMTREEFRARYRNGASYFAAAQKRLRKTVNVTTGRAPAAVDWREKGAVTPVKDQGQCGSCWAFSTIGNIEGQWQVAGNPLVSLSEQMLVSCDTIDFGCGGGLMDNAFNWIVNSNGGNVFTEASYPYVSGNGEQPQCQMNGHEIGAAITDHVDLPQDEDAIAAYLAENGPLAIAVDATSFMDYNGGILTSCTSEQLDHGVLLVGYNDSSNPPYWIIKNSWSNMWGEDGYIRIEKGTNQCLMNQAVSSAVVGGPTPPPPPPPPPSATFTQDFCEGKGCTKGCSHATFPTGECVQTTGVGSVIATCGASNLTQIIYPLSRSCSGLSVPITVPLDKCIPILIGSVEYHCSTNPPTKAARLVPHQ

Turning to `CC(C)C[C@@H](NC(=O)c1ccc(Br)o1)C(=O)N[C@@H]1CCCN(S(=O)(=O)c2cccc[n+]2[O-])CC1=O` [Example 50, 5-Bromo-furan-2-carboxylic acid {(S)-3-methyl-1-[3-oxo-1-(1-oxy-pyridine-2-sulfonyl)-azepan-4-ylcarbamoyl]-butyl}amide], at Cruzain, the pKi is 8.00. Moreover, at Rhodazain, the Ki amounted to 2.1 nM.

Turning to `COc1cc2cc(C(=O)N[C@H](CC(C)C)C(=O)N[C@@H]3CCCN(S(=O)(=O)c4cccc[n+]4[O-])CC3=O)oc2cc1OC` [Example 52, 5,6-Dimethoxy-benzofuran-2-carboxylic acid {(S)-3-methyl-1-[3-oxo-1-(1-oxy-pyridine-2-sulfonyl)-azepan-4-ylcarbamoyl]-butyl}amide], at Cruzain, the pKi was 7.32. On Rhodazain, this compound had a Ki of 3.3 nM.

As to `CC(C)C[C@@H](NC(=O)c1ccc2c(c1)OCO2)C(=O)N[C@@H]1CCCN(S(=O)(=O)c2cccc[n+]2[O-])CC1=O` [Example 55, Benzo[1,3]dioxole-5-carboxylic acid {(S)-3-methyl-1-[3-oxo-1-(1-oxy-pyridine-2-sulfonyl)-azepan-4-ylcarbamoyl]-butyl}amide], on Cruzain, the negative-log Ki (pKi) was 7.92. The compound also gave an inhibition constant (Ki) on Rhodazain of 7.3 nM.

Turning to `Cc1c(C(=O)N[C@H](CC(C)C)C(=O)NC2CCCN(S(=O)(=O)c3cccc[n+]3[O-])CC2=O)oc2ccccc12` (stereo partly drawn) [Example 57, 3-Methyl-benzofuran-2-carboxylic acid {(S)-3-methyl-1-[3-oxo-1-(1-oxy-pyridine-2-sulfonyl)-azepan-4-ylcarbamoyl]-butyl}amide], the pKi at Cruzain was 8.00. Moreover, the affinity at Rhodazain, expressed as Ki, was 5.4 nM.

In the case of `Cc1c(C(=O)N[C@@H](CC(C)C)C(=O)NC2CCCN(S(=O)(=O)c3ccccn3)CC2=O)oc2ccccc12` (stereo partly drawn) [Example 70, 3-Methyl-benzofuran-2-carboxylic acid {(S)-3-methyl-1-[3-oxo-1-(pyridine-2-sulfonyl)-azepan-4-ylcarbamoyl]-butyl}amide], on Cruzain, the negative-log Ki (pKi) was 8.18. On Rhodazain, this compound gave a Ki of 5.5 nM.

Turning to `CC(C)CC(NC(=O)c1ccc(F)cc1)C(=O)N[C@@H]1CCCN(S(=O)(=O)c2cccc[n+]2[O-])CC1=O` (stereo partly drawn) [Example 77, 4-Fluoro-{(S)-3-methyl-1-[3-oxo-1-(1-oxy-pyridine-2-sulfonyl)-azepan-4-carbamoyl]-butyl}-benzamide], at Cruzain, the negative logarithm of the Ki (pKi) was 7.82. Further, affinity on Rhodazain was put at a Ki of 7.9 nM.

On to `Cc1ccc(C(=O)NC(CC(C)C)C(=O)N[C@@H]2CCCN(S(=O)(=O)c3cccc[n+]3[O-])CC2=O)s1` (stereo partly drawn) [Example 79, 5-Methyl-thiophene-2-carboxylic acid {(S)-3-methyl-1-[3-oxo-1-(1-oxy-1pyridine-2-sulfonyl)-azepan-4-ylcarbamoyl]-butyl}amide], for which the pKi on Cruzain was 7.80. Also, the inhibition constant (Ki) at Rhodazain was 8 nM.

With `COc1ccc2oc(C(=O)N[C@@H](CC(C)C)C(=O)N[C@H]3CCCN(S(=O)(=O)c4ccccc4F)CC3=O)cc2c1` [Example 92, 5-Methoxy-benzofuran-2-carboxylic acid-{(S)-1-[1-(2-fluoro-benzenesulfonyl)-3-oxo-azepan-4-ylcarbamoyl]-3-methyl-butyl}-amide], on Cruzain, the negative-log Ki (pKi) is 7.31. For the same compound, at Rhodazain, the affinity, expressed as Ki, was 6.3 nM.

In the case of `Cc1c(C(=O)N[C@@H](CC(C)C)C(=O)N[C@H]2CCCN(S(=O)(=O)c3ccccc3F)CC2=O)oc2ccccc12` [Example 94, 3-methylbenzofuran-2-carboxylic acid-{(S)-1-[1-(2-fluoro-benzenesulfonyl)-3-oxo-azepan-4-ylcarbamoyl]-3-methyl-butyl}-amide], at Cruzain, the pKi is 8.07. The compound also gave an inhibition constant (Ki) on Rhodazain of 9.4 nM.

Take `Cc1oc(-c2ccccc2)nc1C(=O)N[C@@H](CC(C)C)C(=O)NC1CCCN(S(=O)(=O)c2ccccn2)CC1=O` (stereo partly drawn) [Example 106, 5-Methyl-2-phenyl-oxazole-4-carboxylic acid {(S)-3-methyl-1-[3-oxo-1-(pyridine-2-sulfonyl)-azepan-4-ylcarbamoyl]-butyl}amide]: at Cruzain, the pKi is 7.80. On Rhodazain, this compound gave a Ki of 5.8 nM.

`COc1ccc(C(=O)N[C@H](CC(C)C)C(=O)N[C@@H]2CCCN(S(=O)(=O)c3ccccc3C#N)CC2=O)cc1OC` [Example 120]: on Cruzain, the negative-log Ki (pKi) is 8.00. Also, affinity at Rhodazain was put at a Ki of 11 nM.

On to `COc1cccc2cc(C(=O)N[C@@H](CC(C)C)C(=O)N[C@H]3CCCN(S(=O)(=O)c4nccs4)CC3=O)oc12` [Example 125], for which the pKi on Cruzain was 8.40. This compound returned an inhibitory constant (Ki) at Rhodazain of 4.1 nM.

As for `Cc1c(C(=O)N[C@@H](CC(C)C)C(=O)N[C@H]2CCCN(S(=O)(=O)c3nccs3)CC2=O)oc2ccccc12` [Example 126, 3-Methylbenzofuran-2-carboxylic acid {(S)-3-methyl-1-[3-oxo-1-(thiazole-2-sulfonyl)-azepan-4-ylcarbamoyl]-butyl}amide], at Cruzain, the pKi is 8.37. For the same compound, affinity on Rhodazain was put at a Ki of 3.8 nM.

On to `CC(C)C[C@H](NC(=O)c1cc2ccccc2n1C)C(=O)N[C@H]1CCCN(S(=O)(=O)c2nccs2)CC1=O` [Example 128, 1-Methyl-1H-indole-2-carboxylic acid{(S)-3-methyl-1-[3-oxo-1-(thiazole-2-sulfonyl)-azepan-4-ylcarbamoyl]-butyl}amide], for which, at Cruzain, the negative logarithm of the Ki (pKi) was 7.77. Also, at Rhodazain, affinity was put at a Ki of 8.2 nM.

As for `CC(C)C[C@H](NC(=O)c1cc2ccccc2o1)C(=O)N[C@H]1CCCN(S(=O)(=O)c2nccs2)CC1=O` [Example 130, Benzofuran-2-carboxylic acid {(S)-3-methyl-1-[3-oxo-1-(thiazole-2-sulfonyl)-azepan-4-ylcarbamoyl]-butyl}amide], the pKi on Cruzain was 8.60. The compound further gave a Ki at Rhodazain of 2.6 nM.

As for `CC(C)C[C@H](NC(=O)c1cc2ccccc2o1)C(=O)N[C@H]1CCCN(S(=O)(=O)c2cccs2)CC1=O` [Example 142, Benzofuran-2-carboxylic acid-{(S)-3-methyl-1-[3-oxo-1-(thiophene-2-sulfonyl)-azepan-4-ylcarbamoyl]-butyl}-amide], on Cruzain, the negative-log Ki (pKi) is 8.62. This compound displayed a Ki at Rhodazain of 5.2 nM.

As to `Cc1c(C(=O)N[C@@H](CC(C)C)C(=O)N[C@@H]2CCCN(S(=O)(=O)c3cccs3)CC2=O)oc2ccccc12` [Example 145, 3-Methyl-benzofuran-2-carboxylic acid-{(S)-3-methyl-1-[3-oxo-1-(thiophene-2-sulfonyl)-azepan-4-ylcarbamoyl]-butyl}-amide], the negative logarithm of the Ki (pKi) at Cruzain was 8.21. Moreover, the Ki at Rhodazain stood at 9.4 nM.

Consider `CC(C)CC(NC(=O)c1cc2ccccc2n1C)C(=O)NC1CCCN(S(=O)(=O)c2cccs2)CC1=O` [Example 148, 1-Methyl-1-H-indole-2-carboxylic acid-{(S)-3-methyl-1-[3-oxo-1-(thiophene-2-sulfonyl)-azepan-4-ylcarbamoyl]-butyl}-amide], for which, on Cruzain, the pKi was 8.09. This compound also returned an inhibition constant (Ki) on Rhodazain of 23 nM.

In the case of `Cc1cccnc1S(=O)(=O)N1CCC[C@@H](NC(=O)[C@@H](CC(C)C)NC(=O)c2cc3sccc3s2)C(=O)C1` [Example 160, Thieno [3.2-b]thiophene-2-carboxylic acid {(S)-3-methyl-1-[1-(3-methyl-pyridine-2-sulfonyl)-3-oxo-azepan-4-ylcarbamoyl]-butyl}amide], at Cruzain, the negative logarithm of the Ki (pKi) was 8.13. On Rhodazain, the affinity corresponds to a Ki of 6.7 nM.

For the compound `CC(C)C[C@H](NC(=O)c1cc2ccccc2o1)C(=O)NC1CCCN(S(=O)(=O)c2cccc(F)c2)CC1=O` (stereo partly drawn) [Example 183, Benzofuran-2-carboxylic acid {(S)-1-[-(3-fluoro-benzensulfonyl)-3-oxo-azepan-4-ylcarbamoyl]-3-methyl-1-butyl}-amide], the pKi on Cruzain was 8.15. The compound further displayed a Ki on Rhodazain of 6.5 nM.

With `CC(C)C[C@H](NC(=O)c1cccc2ccccc12)C(=O)N[C@H]1CCCN(S(=O)(=O)c2ccccn2)CC1=O` [Example 184, Naphthalene-1-carboxylic acid {(S)-3-methyl-1-[3-oxo-1-(pyridine-2-sulfonyl)-azepan-4-ylcarbamoyl]-butyl}-amide], the Ki at Cruzain (Cruzain Ki nM) is 2.1 nM; on Rhodazain, 1.8 nM.

`CC(C)C[C@@H](NC(=O)c1cc2cc(F)ccc2o1)C(=O)N[C@H]1CCCN(S(=O)(=O)c2cccc[n+]2[O-])CC1=O` [Example 191, 5-Fluoro-benzofuran-2-carboxylic acid {(S)-3-methyl-1-[3-oxo-1-(1-ox-pyridine-2-sulfonyl)-azepan-4-ylcarbamoyl]-butyl}-amide]: the pKi on Cruzain was 7.92. Moreover, the inhibition constant (Ki) at Rhodazain stood at 8.3 nM.

In the case of `Cc1ccc2oc(C(=O)N[C@@H](CC(C)C)C(=O)NC3CCCN(S(=O)(=O)c4cccc[n+]4[O-])CC3=O)c(C)c2c1` (stereo partly drawn) [Example 201, 3,5-Dimethyl-benzofuran-2-carboxylic acid {(S)-3-methyl-1-[3-oxo-1-(1-oxy-pyridine-2-sulfonyl)-azepan-4-ylcarbamoyl]-butyl}-amide], the negative-log Ki (pKi) at Cruzain is 8.00; at Rhodazain (read-out: Rhodazain Ki), 8.12.

Regarding `COc1ccc2oc(C(=O)N[C@@H](CC(C)C)C(=O)N[C@H]3CCN(S(=O)(=O)c4cccc[n+]4[O-])CCC3=O)c(C)c2c1` [Example 205, 5-Methoxy-3-methyl-benzofuran-2-carboxylic acid {(S)-3-methyl-1-[3-oxo-1-(1-oxy-pyridine-2-sulfonyl)-azepan-4-ylcarbamoyl]-butyl}-amide], the pKi on Cruzain was 8.28. For the same compound, on Rhodazain, the Ki came out at 3.2 nM.
